Data reported in patent US20260183274A1, “PDK1 REGULATORY COMPOUND AND COMPOSITION CONTAINING THE SAME” (PROVIBIO CO., LTD., priority 2024, published 2026).

Legend:
[1] = system: Human B Lymphocyte cell line, SU-DHL-8; experiment: Relative cell viability CCK-8, SU-DHL-8; format: cell-based; settings: for viability at 1 µM: read-out: Relative cell viability (%), SU-DHL-8, 1 μM; for viability at 10 µM: read-out: Relative cell viability (%), SU-DHL-8, 10 μM; for Relative cell viability (%), SU-DHL-8: human, 48 h
Experimental: Human-derived B lymphoma cell line SU-DHL-8 (Cat. #CRL-2961) purchased from ATCC was cultured in RPMI-1640 medium containing 10% FBS, 100 U/mL penicillin, and 100 μg/mL streptomycin.
The cell culture medium was then harvested, centrifuged at 1,300 rpm for 5 minutes, and the supernatant was removed. The cells were resuspended in the same medium and dispensed into a 96-well plate (Costar 96-well cell culture plate, Corning) at 90 μL per well, resulting in the conditions specified in Table 5.
Then, 10 μL of CCK-8 was added to each well, and the plates were incubated again at 37° C. in a 5% CO2 incubator for 4 hours.
In other words, when the survival rate of untreated cells (DMSO) is set at 100%, the relative cell survival rate in each group treated with the drug at different concentrations is indicated.

[2] = system: T cells isolated from mouse spleens; experiment: T cell proliferation inhibition (CFSE flow cytometry, anti-CD3/anti-CD28 stimulation); format: cell-based; settings: mouse spleen T cells, 3 days; for inhibition at 0.01 µM / inhibition at 0.1 µM / inhibition at 1 µM / inhibition at 10 µM / inhibition at 30 µM / inhibition at 50 µM: Mus musculus, T-cell, 72 h, read-out: Proliferation inhibition rate (%); for inhibition at 50 µM: compound 50 μM
How it was run: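 Splenic T cells from 7-week-old C57BL/6 mice were MACS-isolated, CFSE-labelled, seeded at 2×10^5 cells/well and activated with anti-CD3/anti-CD28 (0.5 μg/mL each). Compound at 10 nM–50 μM (six levels, triplicate) was present for 3 days at 37 °C before flow cytometric readout of proliferation inhibition rate.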

[3] = Homo sapiens, SU-DHL-8, 48 h, 48 hours, untreated (DMSO) = 100%

Structure (SMILES)	inhibition at 0.01 µM ([2]; compound 10 nM) [%]	inhibition at 0.1 µM ([2]; compound 100 nM) [%]	inhibition at 1 µM ([2]; compound 1 μM) [%]	inhibition at 10 µM ([2]; compound 10 μM) [%]	inhibition at 30 µM ([2]; compound 30 μM) [%]	inhibition at 50 µM [2] [%]	further results
CN1CCN(C(=O)OC(C)(C)C)CC1CCCCCCCCNC(=O)c1cccnc1N (stereo not drawn) [Compound 12, tert-Butyl 3-(8-(2-aminonicotinamido)octyl)-4-methylpiperazine-1-carboxylate]							viability at 1 µM [1, 3]: 7.6%; viability at 10 µM [1, 3]: 3.79%; viability at 30 µM ([1]; Homo sapiens, SU-DHL-8, 48 h, read-out: Relative cell viability (%), SU-DHL-8, 30 μM, 48 hours, untreated (DMSO) = 100%): 1.64%; viability at 50 µM ([1]; Homo sapiens, SU-DHL-8, 48 h, read-out: Relative cell viability (%), SU-DHL-8, 50 μM, 48 hours, untreated (DMSO) = 100%): 1.13%
Nc1ncccc1C(=O)NCCCCCCCCCCF [Compound 68, 2-Amino-N-(10-fluoro-decyl)-nicotinamide]							viability at 1 µM [1, 3]: 16.1%; viability at 10 µM [1, 3]: 15.3%; Relative cell viability (%), SU-DHL-8 ([1]; 30 µM): −2.90%; Relative cell viability (%), SU-DHL-8 ([1]; 50 µM): −5.64%
CN1CCN(CCCCCCCCCCCCNC(=O)c2cccc(N)c2I)CC1 [Compound 197, 3-Amino-2-iodo-N-(12-(4-methylpiperazin-1-yl)dodecyl)benzamide]	7.81	10.3	16.4	98	100	100	
CN1CCN(CCCCCCCCCCCCNC(=O)c2ccnc(Cl)c2Cl)CC1 [Compound 198, 2,3-Dichloro-N-(12-(4-methylpiperazin-1-yl)dodecyl)isonicotinamide]	5.35	9.41	20.1	100	100	100	
CN1CCN(CCCCCCCCCCCCNC(=O)c2ccncc2Cl)CC1 [Compound 199, 3-Chloro-N-(12-(4-methylpiperazin-1-yl)dodecyl)isonicotinamide]	0	0	0	40	100	100	
COc1ncccc1C(=O)NCCCCCCCCCCCCN1CCN(C)CC1 [Compound 200, 2-Methoxy-N-(12-(4-methylpiperazin-1-yl)dodecyl)nicotinamide]	0	0	0	80	100	100	
CN1CCN(CCCCCCCCCCCCNC(=O)c2c(Cl)cncc2Cl)CC1 [Compound 201, 3,5-Dichloro-N-(12-(4-methylpiperazin-1-yl)dodecyl)isonicotinamide]	7.24	6.66	8.54	78.4	100	100	
Cc1ccc(C(=O)NCCCCCCCCCCCCN2CCN(C)CC2)nc1 [Compound 202, 5-Methyl-N-(12-(4-methylpiperazin-1-yl)dodecyl)picolinamide]	4.05	13.2	19	100	100	100	
CN1CCN(CCCCCCCCCCCCNC(=O)c2ccc(F)cn2)CC1 [Compound 203, 5-Fluoro-N-(12-(4-methylpiperazin-1-yl)dodecyl)picolinamide]	-4.49	1.16	6.8	100	100	100	
COc1ccc(C(=O)NCCCCCCCCCCCCN2CCN(C)CC2)nc1 [Compound 204, 5-methoxy-N-(12-(4-methylpiperazin-1-yl)dodecyl)picolinamide]	-2.6	-0.14	12.3	95	100	100	
Cc1nccn1-c1cccc(C(=O)NCCCCCCCCCCCCN2CCN(C)CC2)c1 [Compound 207, 3-(2-methyl-1H-imidazol-1-yl)-N-(12-(4-methylpiperazin-1-yl)dodecyl)benzamide]	-5.35	-3.91	-3.04	100	100	100	
CN1CCN(CCCCCCCCCCCCNC(=O)c2ccc(-c3ncn[nH]3)cc2)CC1 [Compound 208, N-(12-(4-methylpiperazin-1-yl)dodecyl)-4-(1H-1,2,4-triazol-5-yl)benzamide]	2.46	-0.58	10.6	100	100	100	
CN1CCN(CCCCCCCCCCCCNC(=O)c2ccncc2N)CC1 [Compound 209, 3-Amino-N-(12-(4-methylpiperazin-1-yl)dodecyl)isonicotinamide]	-1.45	1.59	18.8	84.5	100	100	
CN1CCN(CCCCCCCCCCCCNC(=O)c2cccnc2O)CC1 [Compound 210, 2-Hydroxy-N-(12-(4-methylpiperazin-1-yl)dodecyl)nicotinamide]	-4.34	-3.18	2.75	42.8	100	100	
CN1CCN(CCCCCCCCCCCCNC(=O)c2cnccc2N)CC1 [Compound 211, 4-Amino-N-(12-(4-methylpiperazin-1-yl)dodecyl)nicotinamide]						100	Proliferation inhibition rate (%) ([2]; compound 10 nM, listed as KP-63, 0.01 µM): −2.17%; Proliferation inhibition rate (%) ([2]; compound 100 nM, listed as KP-63, 0.1 µM): −0.87%; Proliferation inhibition rate (%) ([2]; compound 1 μM, listed as KP-63, 1 µM): 9.70%; Proliferation inhibition rate (%) ([2]; compound 10 μM, listed as KP-63, 10 µM): 90.01%
CN1CCN(CCCCCCCCCCCCNC(=O)c2cnccc2N)CC1 [Compound 212, 4-Amino-N-(12-(4-methylpiperazin-1-yl)dodecyl)nicotinamide]							Proliferation inhibition rate (%) ([2]; compound 10 nM, listed as KP-64, 0.01 µM): −2.89%; Proliferation inhibition rate (%) ([2]; compound 100 nM, listed as KP-64, 0.1 µM): −3.91%; Proliferation inhibition rate (%) ([2]; compound 1 μM, listed as KP-64, 1 µM): −4.34%; Proliferation inhibition rate (%) ([2]; compound 10 μM, listed as KP-64, 10 µM): 20.55%; Proliferation inhibition rate (%) ([2]; compound 30 μM, listed as KP-64, 30 µM): 71.78%
CN1CCN(CCCCCCCCCCCCNC(=O)c2ccc(C(F)(F)F)cc2N)CC1 [Compound 213, 2-Amino-N-(12-(4-methylpiperazin-1-yl)dodecyl)-4-(trifluoromethyl)benzamide]	-0.14	6.37	8.54	100	100	100	
CN1CCN(CCCCCCCCCCCCNC(=O)c2ccccc2Oc2ccccc2)CC1 [Compound 214, N-(12-(4-methylpiperazin-1-yl)dodecyl)-2-phenoxybenzamide]	2.32	12.2	17.4	100	100	100	
CCOc1cc(C(C)(C)C)ccc1C(=O)NCCCCCCCCCCCCN1CCN(C)CC1 [Compound 216, 4-(tert-butyl)-2-ethoxy-N-(12-(4-methylpiperazin-1-yl)dodecyl)benzamide]	2.03	2.32	13	100	100	100	
COc1cccc(OC)c1C(=O)NCCCCCCCCCCCCN1CCN(C)CC1 [Compound 218, 2,6-Dimethoxy-N-(12-(4-methylpiperazin-1-yl)dodecyl)benzamide]	1.31	2.74	12.4	100	100	100	
Cc1c(Cl)cccc1C(=O)NCCCCCCCCCCCCN1CCN(C)CC1 [Compound 219, 3-Chloro-2-methyl-N-(12-(4-methylpiperazin-1-yl)dodecyl)benzamide]	-5.37	2.18	3.48	66.5	100	100	
